Our source for the RP-LC retention time values is the METLIN SMRT retention time set (Domingo-Almenara et al. 2019).

A short description of the data set: gradient 5% acetonitrile 3 min, to 50% in 2 min, to 85% in 15 min, held 3 min, 100 µL/min. The conditions noted are these: column: Zorbax Extend-C18 2.1 x 50 mm; eluents: water / acetonitrile, 0.1% formic acid. Put shortly:
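Pure standards were analyzed in mixtures of ~100 molecules using HPLC coupled to a quadrupole time-of-flight mass spectrometer, in both positive and negative ionization mode. Separation used a Zorbax Extend-C18 column (2.1 × 50 mm, 1.8 μm) at 100 μL/min, with water and acetonitrile each containing 0.1% formic acid. Dead and dwell volumes were 40 μL and 900 μL, and data were collected over 3 months. Retention time was read from computationally picked adduct peaks, each inspected manually.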
`CC(C)CNC(=O)CN1CCN(Cc2ccc(F)cc2)C1=O` registered an RP-LC retention time of 742 s.

The compound `Cc1cc(C)c(NC(=O)Cn2nc3c4ccccc4ncn3c2=O)c(C)c1` yielded an RP-LC retention time of 671 s.

Regarding `CCCNC(=O)N1CCCN(C2CCN(Cc3ccccc3)C2=O)CC1` (stereo not given), the RP-LC retention time was 535 s.

`O=C(CSc1nccn1-c1cccc(C(F)(F)F)c1)Nc1nccs1`: the RP-LC retention time turned out to be 728 s.

With `CCC(C)NC(=O)c1cn(-c2cc(-c3nc(C4CC4)no3)ccn2)cn1` (stereo not given), the RP-LC retention time was 840 s.

As for `COc1cc(CN2CC[C@@H]3CN(S(C)(=O)=O)[C@@H]3C2)ccc1F`, the RP-LC retention time was found to be 598 s.

Take `COc1ccc(CCNC(=O)C2CCN(c3ncnc4c3oc3ccccc34)CC2)cc1OC`: the RP-LC retention time is 683 s.

The compound `O=C(c1ccncc1)N1CCC(c2noc(-c3cnccn3)n2)C1` (stereo not given) had an RP-LC retention time of 584 s.

For the compound `COc1ccc(NC(=O)Cn2c(C)nc3c(sc4nc(-c5ccccc5)ccc43)c2=O)cc1Cl`, the RP-LC retention time came out at 1090 s.

For the compound `COCCCNC(=O)c1ccc2c(c1)nc1n2CCCCC1`, the RP-LC retention time is 566 s.

Compound `COc1ccc(N2CCN(C(=O)c3ccc(=O)n(CCN4CCOCC4)c3)CC2)cc1` displayed an RP-LC retention time of 578 s.

`CC(=O)N1C[C@@H](C(=O)NCc2cccs2)[C@H](c2nc(C)no2)C1` had an RP-LC retention time of 630 s.

For the compound `CCCC(=O)Nc1ccc2c(c1)CN(C(=O)c1cc(F)ccc1Cl)C(C(=O)N(C)C)C2` (stereo not given), the RP-LC retention time came to 726 s.

`C=CCNC(=O)c1cn(CCC)nc1S(=O)(=O)N1CCN(c2ccccc2OCC)CC1` returned an RP-LC retention time of 1030 s.

As for `O=C(O)CCc1conc1-c1ccc(F)cc1`, the RP-LC retention time stood at 708 s.

For the compound `O=C(Nc1ccc2ncsc2c1)c1sc2ccccc2c1Cl`, the RP-LC retention time is 997 s.

In the case of `CCOc1ccccc1NC(=O)NCc1nc(-c2ccccc2)oc1C`, the RP-LC retention time turned out to be 963 s.

`O=C(CN1CCC(c2nc(-c3cccs3)no2)CC1)NCc1ccc2c(c1)OCO2` showed an RP-LC retention time of 672 s.

For `COc1cc2c(cc1OC)C(C(=O)NCCCN1CCC(C)CC1)C1c3ccccc3CCN1C2=O` (stereo not given), the RP-LC retention time was 624 s.

For the compound `CCN1C(=O)COc2ccc(-c3csc(NC(=O)c4ccccc4F)n3)cc21`, the RP-LC retention time amounted to 968 s.

Consider `Cc1cc(Br)ccc1NS(=O)(=O)c1cc(-c2nc(C)c(C)s2)cs1`, for which the RP-LC retention time amounted to 1110 s.

For the compound `CCOCCCNC(=O)[C@@H]1[C@H](c2cc(OC)c(OC)c(OC)c2)c2cc3c(cc2[C@H](O)[C@H]1CO)OCO3`, the RP-LC retention time stood at 653 s.

`O=C(NC1CCCCC1)N1CCC(c2noc(-c3ccccc3)n2)C1` (stereo not given) yielded an RP-LC retention time of 939 s.

Compound `Oc1ccc(Nc2ccnc3cc(Cl)ccc23)cc1` yielded an RP-LC retention time of 665 s.

With `O=C(NCC1CCCO1)c1ccc(-c2cnc(Oc3ccc(F)cc3)nc2)cc1` (stereo not given), the RP-LC retention time amounted to 793 s.

In turn, `CC1=C(c2ccccc2)S(=O)(=O)N=C1N1CCCN(C(=O)c2ccccn2)CC1` returned an RP-LC retention time of 693 s.

Compound `COc1ccc(CNC(=O)N2CCC(COCc3ccccc3)CC2)cc1OC` showed an RP-LC retention time of 814 s.

For `O=C(Nc1cnc(-c2cccc(Cl)c2)nc1)c1ccc(Br)o1`, the RP-LC retention time was 1140 s.

On to `COc1ccccc1CNC(=O)C1CCCN1S(=O)(=O)c1cc2c(cc1C)NC(=O)C(C)O2` (stereo not given), for which the RP-LC retention time is 757 s.

Compound `O=C(c1cc(-c2ccncc2)n[nH]1)N1CCN(C(=O)c2cc3ccccc3[nH]2)CC1` registered an RP-LC retention time of 598 s.

Take `Cn1cccc1C(=O)C(=O)N1CCN(c2ccc(Cl)cc2)CC1`: the RP-LC retention time was determined as 904 s.

`Cc1nc(-c2ccccc2)sc1C(=O)N1CCN(c2ccc(-n3ccnc3C)nn2)CC1` returned an RP-LC retention time of 572 s.

`CCN(Cc1ccccc1)C(=O)c1ncn2c1C(=O)N(CC)C(C)(C(=O)NC1CCCC1)C2` (stereo not given) came in with an RP-LC retention time of 734 s.

In turn, `O=C(NCCN1CCN(S(=O)(=O)c2ccccc2)CC1)c1c(F)cccc1Cl` gave an RP-LC retention time of 574 s.

`Cc1nnc2ccc(S(=O)(=O)N(Cc3ccccc3)c3cccc(F)c3)cn12` showed an RP-LC retention time of 866 s.

`Cc1cccc(CN2CCc3nc(N4CCN(c5ccccc5F)CC4)ncc3C2)c1` had an RP-LC retention time of 810 s.

`CCCn1nc(C)cc1CN(C)C(=O)Cn1nc2n(c1=O)CCC(N)CC2` (stereo not given) displayed an RP-LC retention time of 561 s.

On to `Cn1nc(-c2ccc(F)cc2)cc1C(=O)NCc1n[nH]c(=O)c2ccccc12`, for which the RP-LC retention time came out at 694 s.

`CCC1CN1P(=O)(Oc1ccc(Cl)cc1)N1CC1CC` (stereo not given) returned an RP-LC retention time of 980 s.

Compound `Cc1ccccc1NC(=O)N1CCC2(CC1)NC(=O)c1ccc(F)cc1N2C` yielded an RP-LC retention time of 747 s.

As for `Cc1cc(-c2ccc(S(=O)(=O)N3CCN(c4ccccn4)CC3)s2)n[nH]1`, the RP-LC retention time amounted to 623 s.

As to `O=C(CN1CCN(Cc2cccc(Cl)c2)C1=O)NCc1ccc(N2CCOCC2)cc1`, the RP-LC retention time amounted to 736 s.

The compound `CC(C)(C)c1csc(-c2csc(S(=O)(=O)Nc3ccccc3F)c2)n1` registered an RP-LC retention time of 1120 s.

As for `Fc1ccc(-c2nc(-c3cn(Cc4ccccc4)nn3)no2)cc1`, the RP-LC retention time worked out at 1090 s.

With `Cc1c(Cl)cccc1NC(=O)c1cccc([N+](=O)[O-])c1O`, the RP-LC retention time came to 975 s.

`Cc1ccc(NC(=O)CN2C(=O)CSC(C)C2=O)cc1Cl` (stereo not given) showed an RP-LC retention time of 819 s.

The compound `Cc1cc(NC(=O)CCc2nc(CSc3nnc(-c4ccccc4)o3)no2)ccc1Br` registered an RP-LC retention time of 1040 s.

Turning to `COC(=O)c1c(NCc2cc(OC)ccc2OC)c2cccc(Cl)c2[nH]c1=O`, the RP-LC retention time is 808 s.

In turn, `CCC(=O)NCc1nc2c(n1C)CN(C(=O)c1ccc(Br)cc1)CC2` yielded an RP-LC retention time of 605 s.

`CCCc1ccc(S(=O)(=O)N2CCC3(CC2)NCCN=C3NCc2ccc(C)cc2)cc1` returned an RP-LC retention time of 846 s.

On to `CCCc1cc(N2CCN(C(=O)c3ccsc3)CC2)nc2nnc(CC)n12`, for which the RP-LC retention time is 624 s.

As for `CCc1ccc(C(C)NC(=O)c2nnc(-c3ccc(S(=O)(=O)N(C)C)cc3)o2)cc1` (stereo not given), the RP-LC retention time worked out at 1010 s.

Compound `CN1CCN(c2ccc(NC(=O)C(C)(C)C)c(C(=O)O)c2)CC1` displayed an RP-LC retention time of 601 s.

On to `c1ccc(-c2cc(N3CCOCC3)n[nH]2)cc1`, for which the RP-LC retention time stood at 686 s.

Compound `COc1ccccc1NS(=O)(=O)c1c[nH]c2ncccc12` displayed an RP-LC retention time of 706 s.

Compound `O=C(Cc1ccc(F)cc1)N1CCN(c2nc(CN3CCOCC3)cs2)CC1` gave an RP-LC retention time of 616 s.

`O=C1CCN(S(=O)(=O)c2cccc3nsnc23)CCCCCCN1` yielded an RP-LC retention time of 724 s.

As for `CCc1cc(C(=O)Nc2cc(Cl)ccc2OC)nc2ccnn12`, the RP-LC retention time amounted to 1210 s.

In turn, `COCCN1C(=O)c2cccn2CC1CNS(=O)(=O)c1c(C)noc1C` (stereo not given) returned an RP-LC retention time of 689 s.

Compound `CN(C)CCNc1oc(COc2ccc(Cl)cc2)nc1C#N` displayed an RP-LC retention time of 641 s.

`O=S(=O)(c1cc(-c2noc(C3CCCC3)n2)cs1)N1CCCC1` came in with an RP-LC retention time of 1110 s.

`CN1C(=O)c2cc(C(=O)NCCCN3CCc4ccccc4C3)nn2CC1(C)C(=O)NC1CCCC1` (stereo not given) had an RP-LC retention time of 623 s.

Compound `CCC(C)C(=O)N1CCCN(C2=NS(=O)(=O)C(c3ccccc3)=C2C)CC1` (stereo not given) returned an RP-LC retention time of 777 s.

`CCCNc1cc(N2CCC(CCC(=O)NCc3ccccc3C)CC2)ncn1` showed an RP-LC retention time of 702 s.

As for `O=C(c1ccoc1)N1CCCn2nc(-c3ccc(Cl)cc3)cc2C1`, the RP-LC retention time was found to be 802 s.

Consider `COc1c(C(=O)NCCN2CCCCC2C)sc2ccc(Cl)cc12` (stereo not given), for which the RP-LC retention time is 716 s.

For `O=C(NCC(O)c1ccc(C(F)(F)F)cc1)c1ccco1` (stereo not given), the RP-LC retention time is 711 s.

`O=C(Cn1nc(N2CCOCC2)c2ccccc2c1=O)Nc1ccc(Br)cc1` returned an RP-LC retention time of 864 s.

The compound `COCCO[C@H]1C(=O)N(C2CCN(S(=O)(=O)c3cccnc3)CC2)[C@H]1c1ccncc1` had an RP-LC retention time of 583 s.

`Cc1ccccc1-c1noc(-c2cccnc2N2CCN(Cc3ccccc3)CC2)n1` displayed an RP-LC retention time of 803 s.

Compound `Cc1cc(C)cc(NC(=O)COc2cccc3c(=O)n(C)ccc23)c1` displayed an RP-LC retention time of 844 s.

`CN(CCCNC(=O)C1CCN(c2nnc3ccc(Cl)cn23)CC1)c1ccccc1` displayed an RP-LC retention time of 606 s.

Turning to `Cc1cccc(CNC(=O)C2CCCN(S(=O)(=O)c3cc(-c4noc(C)n4)cs3)C2)c1` (stereo not given), the RP-LC retention time worked out at 1010 s.

Turning to `Cc1ccc(C)c(CNC(=O)C2CCc3nc(N4CCOCC4)ncc3C2)c1` (stereo not given), the RP-LC retention time worked out at 888 s.

`CS(=O)(=O)N(C1CCOCC1)C1CN(C(=O)c2n[nH]c3ccccc23)C1` showed an RP-LC retention time of 663 s.

Compound `CCN1CCN(C(=O)C(C)n2c(=O)c(C(F)(F)F)nc3cc(C)c(C)cc32)CC1` (stereo not given) yielded an RP-LC retention time of 702 s.

`CCN1C(=O)C(C)(C(=O)Nc2ccccc2C)Oc2cccnc21` (stereo not given) registered an RP-LC retention time of 876 s.

In turn, `O=C1Nc2cc(C(=O)N3CCN(C(=O)c4ccco4)CC3)ccc2N2CCCCC12` (stereo not given) gave an RP-LC retention time of 677 s.

In turn, `CCC1=C(C(=O)Nc2ccccc2)C2CCCC3(C2)NCCCN13` (stereo not given) had an RP-LC retention time of 611 s.

Regarding `COc1ccc(OC)c(S(=O)(=O)N2CCc3nc(-c4ccccc4)ncc3C2)c1`, the RP-LC retention time is 998 s.
